Source: US20220259172A1, “CHEMICAL INHIBITORS OF ID PROTEINS FOR THE TREATMENT OF CANCER AND OTHER DISEASES” (Universität Heidelberg, priority 2019, published 2022)
Entries after “also recorded” stand apart in the source; their conditions may differ.

Legend:
Id3 [1] = assay: Id3 expression in HUVECs, Western blot; format: cell-based, Human
Procedure: (§1) Human umbilical vein endothelial cells (HUVECs) and lymphatic endothelial cells (LECs) were cultivated in EBM™-2 Endothelial Cell Growth Basal Medium supplemented with EGM™-2 MV Microvascular Endothelial Cell Growth Medium-2 SingleQuots™ Kit (both Lonza, catalogue numbers CC-3156 and CC4176, respectively), hereafter referred to as endothelial cell growth medium. HUVECs and LECs were cultivated in the presence of the indicated concentrations of X6632, or with DMSO as a solvent control. After 24 hours, cells were harvested. Lysates were western blotted and probed with antibodies against Id1 and Id3. Western blots probed with vinculin antibodies served as loading controls.
(§2) Western blot analysis was performed using standard methods. The following antibodies were used for protein detection: Id1 (195-14, CalBioreagents), Id3 (17-3, CalBioreagents), β-actin (AC-15, Sigma Aldrich), Vinculin (VIN-11-5, Sigma Aldrich). Protein bands were detected using HRP conjugated secondary antibodies (P0447, P0448, Agilent Technologies) and enhanced chemiluminescence (32106, Thermo Fisher Scientific).
(§3) The effect of X6632 on Id1 and Id3 expression in cultivated proliferating human umbilical vein endothelial cells (HUVECs) was investigated. […] LDN-193189, an antagonist of BMP receptor isotypes ALK2 and ALK3, served as a positive control reference for inhibition of Id1 and Id3 expression.

B16-F10 and Ret cells [2] = assay: Proliferation of melanoma cells in 2D culture; format: cell-based, murine
Id3 [3] = assay: Id3 expression in LECs, Western blot; format: cell-based; conditions: indicated concentrations, 24 hours (FIG. 10B)
Procedure: as §1, §2, §3

Id1 = Id1 expression in HUVECs, Western blot; format: cell-based, Human
Procedure: as §1, §2, §3

LECs = assay: LEC proliferation, CyQUANT assay; format: cell-based; conditions: dose-dependent manner (FIG. 11)
Procedure: HUVECs (A) and LECs (B) were cultivated in endothelial cell growth medium. Cells were incubated with the indicated concentrations of X6632. Incubation with DMSO served as a solvent control. After cultivation for the indicated time periods, cells were stained with a CyQUANT™ Cell Proliferation Assay Kit (Thermo Fisher Scientific). The CyQUANT™ dye emits fluorescence after excitation at 485 nm when incorporated in double-stranded DNA, allowing DNA content to be used as a measure of cell numbers. Plates were incubated for 15 min at 37° C. to allow the CyQUANT™ dye to incorporate into DNA. Fluorescence was measured by excitation at 485 nm and detection of emission at 530 nm at 25 positions in each well (signal intensity) using a Tecan Infinite M200 reader.

Id3 [4] = assay: Compound screen: BMP4-induced Id3 expression, Western blot; format: cell-based, murine; conditions: B16-F10 and Ret cells, BMP4 10 ng/ml and compound simultaneously, 24 h, rated relative to CBD
Procedure: To screen compounds with an inhibitory effect on Id1 and Id3 expression, cells were simultaneously stimulated with BMP4 (10 ng/ml, 315-27, Peprotech) and substances at the indicated concentrations for 24 h. DMSO served as a solvent control. Effects on Id1 and Id3 expression levels were analysed by Western blotting.
as §2
B16-F10 and Ret melanoma cells were treated with BMP4 to induce Id1 and Id3 expression, and simultaneously treated with each of the compounds individually for a 24 h period.

B16-F10 and Ret cells [5] = assay: 3D Matrigel assay; format: cell-based, murine; conditions: daily application in 3D Matrigel
Procedure: X8166 inhibits melanoma cell growth in 3D Matrigel. B16-F10 (A) or Ret (B) control or CRISPR/Cas9 Id1/Id3 cells were seeded in 3D Matrigel (10 mg/ml) and grown for six days before analysis. B16-F10 or Ret cells were treated daily with DMSO or X8166 (7.5 μM). The number of colonies at six positions of each well of a 48-well plate were counted in each z-level (5-10 z-levels were imaged per position).
Cells (2×10^3) were mixed with Matrigel to obtain 150 μl of a cell/Matrigel (10 mg/ml, #354262, Corning Inc.) solution, which was seeded into a well of a 48-well plate. The gel was allowed to solidify at 37° C. for 30 min and was subsequently overlaid with 500 μl complete growth medium. After six days of culture, images were captured using a Leica DMI6000 B microscope at six different x/y positions in every well, and a minimum of five horizontal layers (z levels) at each position, in order to get every cell in focus for image analysis. Image analysis was performed using Fiji software as follows: First, images were transformed into 8-bit files (pixel values from 0 (black) to 255 (white)). The scale was set to distance=0, known=0, pixel=1, and unit=pixel global. Outlines of each colony in focus in every image were detected using the integrated semi-automatic magic wand tool. Once outlines were matching the morphology of the colony were obtained, the colony was filled white (pixel value 255) using the fill function. Thresholding of pixel values (threshold=255) allowed black (background) and white (colonies) images of the filled colonies to be obtained. The “Analyze particles” function was applied to measure the area and perimeter of colonies with a minimum pixel size of 1500. An invasive index was calculated as follows: Invasive index=(perimeter)^2/area, resulting in a unitless measure of invasiveness.

[6] = test system: mouse embryonic fibroblasts (MEFs); assay: Proliferation/cytotoxicity in mouse embryonic fibroblasts, 2D culture; format: cell-based
Ret melanoma cells = assay: Tumor growth and initiation in vivo, Ret; parameters: species or system mice
Excerpt: B16-F10 (A) or Ret (B) cells were co-injected with Matrigel into syngeneic mice. […] Numbers indicate the number of animals with a tumor in each group. Bar graphs show the mean tumor volume in each group at the day when the first animal had reached the legal tumor size limit. Kaplan-Meier curves show the percentage of tumor-free animals in percent as a measure for tumor initiation.
Cells were harvested using trypsin/EDTA and washed in PBS. The indicated numbers of living melanoma cells were subcutaneously injected into the flank of syngeneic mice in 100 μl PBS. For co-injection experiments, the indicated number of living cells was resuspended in 100 μl Matrigel HC (10 mg/ml, #354262, Corning Inc.), and subcutaneously injected into the flank. Tumor volume was calculated using the formula 4/3π (d1/2×d2/2×d3/2), where d1−d3 represents the diameter of the tumor in three dimensions. […] All animal experiments were approved by the local authorities, and performed according to the German legal requirements. Tumor initiating cell (TIC) frequency and p-values were calculated using ELDA software.
To investigate the anti-tumor properties of the selected Id1/Id3-inhibiting compounds, groups of experimental mice (8 per group) were injected subcutaneously with B16-F10 or Ret melanoma cells. […] Melanoma initiation and growth was assessed over a period of 90 days.

[7] = HUVECs, indicated concentrations, 24 hours (FIG. 10B)
[8] = proliferating HUVECs, 24 hours (FIG. 10A)

CCCCc1cc2c(O)cc(C3(CCCC)CCCCC3)cc2oc1=O [X6632, 7-(1-Butylcyclohexyl)-5-hydroxy-3-butyl-2H-chromen-2-one]
Expression of Id3 protein (Id3 [1]; [7]): inhibits | Id3 protein expression (Id3 [1]; [8]): completely abrogated | Proliferation / cytotoxicity, melanoma cells (B16-F10 and Ret cells [2]): strongly inhibited | Expression of Id3 protein (Id3 [3]): inhibits | Expression of Id1 protein (Id1; [7]): inhibits | Id1 protein expression (Id1; [8]): completely abrogated | Proliferation of LECs (LECs): inhibited | Inhibitory effect on Id3 protein expression (Id3 [4]): more potent | Inhibitory effect on Id3 protein expression (Id3 [4]; listed as X 6632): strongest inhibitory activities | 3D assays could not be performed with daily application, reason (B16-F10 and Ret cells [5]): cytotoxicity | Proliferation / cytotoxicity, non-transformed MEFs [6]: strongly inhibited | Melanoma growth and initiation (Ret melanoma cells; Ret cells co-injected with Matrigel, syngeneic mice, daily i.p. first 14 days, compared to DMSO): significantly inhibit; also recorded: potent inhibitors | Number of mice that did not develop any tumors (Ret melanoma cells; Ret cells, 8 mice per group, assessed over 90 days): 1 mice | Tumor growth and initiation compared to CBD (Ret melanoma cells; Ret experiment, daily i.p. first 14 days): trend towards reduced tumor initiation and growth
